Test results published in US10294246B2, “Substituted boronic acids and boronate esters as immunoproteasome inhibitors” (MERCK PATENT GMBH, priority 2014, dated 2019).

What was measured:
[1] = target: human immunoproteasome (LMP7) (Homo sapiens (Human), UniProt P28062); experiment: Determination of LMP7 activity (fluorescence intensity assay, Suc-LLVY-AMC); type: biochemical; conditions: for Selectivity LMP7 vs Beta5: LMP7 versus Beta5; for IC50: purified human immunoproteasome 0.25 nM, Suc-LLVY-AMC 40 μM
Outline: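 0.25 nM purified human immunoproteasome preincubated 20 min at 25 °C with serially diluted compounds in 50 mM Tris pH 7.4, 0.03% SDS, 1 mM EDTA, 1% DMSO. Reaction started with 40 μM Suc-LLVY-AMC, run 60 min at 37 °C. Fluorescence read at ex 350/em 450 nm.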

[2] = target: human constitutive proteasome (Beta5) (Homo sapiens (Human), UniProt P28074); experiment: Determination of Beta5 activity (fluorescence intensity assay, Suc-LLVY-AMC); type: biochemical; conditions: purified human constitutive proteasome 1.25 nM, Suc-LLVY-AMC 40 μM
Outline: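 Purified constitutive proteasome (1.25 nM) was preincubated with compounds 20 min at 25 °C in 50 mM Tris pH 7.4, 0.03% SDS, 1 mM EDTA, 1% DMSO. Suc-LLVY-AMC (40 μM) was then added for 60 min at 37 °C. AMC fluorescence was read at ex 350/em 450 nm.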

Compound	Selectivity LMP7 vs Beta5 [1]	IC50 [1] [µM]	IC50 [2] [µM]
COc1ccc(CC(=O)N[C@H](Cc2coc3c(C)cccc23)B(O)O)cc1 [Compound No. 81, [(1S)-1-[[2-(4-methoxyphenyl)acetyl]amino]-2-(7-methylbenzofuran-3-yl)ethyl]boronic acid]	+++++ (Selectivity ≥ 100)	0.05 to 0.5	> 5
COc1ccc(CC(=O)N[C@@H](Cc2coc3c(C)cccc23)B(O)O)cc1 [Compound No. 82, [(1R)-1-[[2-(4-methoxyphenyl)acetyl]amino]-2-(7-methylbenzofuran-3-yl)ethyl]boronic acid]	+++++ (Selectivity ≥ 100)	< 0.05	0.5 to 5
Cc1cccc2c(C[C@H](NC(=O)[C@@H](CO)c3ccccc3)B(O)O)coc12 [Compound No. 83, [(1R)-1-[[(2R)-3-hydroxy-2-phenyl-propanoyl]amino]-2-(7-methylbenzofuran-3-yl)ethyl]boronic acid]	+++++ (Selectivity ≥ 100)	< 0.05	0.5 to 5
Cc1cccc2c(C[C@@H](NC(=O)[C@@H](CO)c3ccccc3)B(O)O)coc12 [Compound No. 84, [(1S)-1-[[(2R)-3-hydroxy-2-phenyl-propanoyl]amino]-2-(7-methylbenzofuran-3-yl)ethyl]boronic acid]	++ (10 ≤ Selectivity < 50)	0.5 to 5	> 5
O=C(Cc1ccccc1)N[C@@H](Cc1coc2c(Cl)cccc12)B(O)O [Compound No. 85, [(1R)-2-(7-chlorobenzofuran-3-yl)-1-[(2-phenylacetyl)amino]ethyl]-boronic acid]	+++++ (Selectivity ≥ 100)	< 0.05	0.5 to 5
COc1ccc(CCC(=O)N[C@@H](CC2COc3c(C)cccc32)B(O)O)nc1 (stereo partly drawn) [Compound No. 86, [(1R)-1-[3-(5-methoxy-2-pyridyl)propanoylamino]-2-(7-methyl-2,3-dihydrobenzofuran-3-yl)ethyl]boronic acid]	+++++ (Selectivity ≥ 100)	< 0.05	> 5
COc1ccc(CCC(=O)N[C@H](CC2COc3c(C)cccc32)B(O)O)nc1 (stereo partly drawn) [Compound No. 87, [(1S)-1-[3-(5-methoxy-2-pyridyl)propanoylamino]-2-(7-methyl-2,3-dihydrobenzofuran-3-yl)ethyl]boronic acid]	+ (Selectivity < 10)	0.5 to 5	> 5
COc1ccc(CC(=O)N[C@@H](C[C@H]2COc3c(C)cccc32)B(O)O)cc1 [Compound No. 88, [(1R)-1-[[2-(4-methoxyphenyl)acetyl]amino]-2-[(3R)-7-methyl-2,3-dihydrobenzofuran-3-yl]ethyl]boronic acid]	+++++ (Selectivity ≥ 100)	0.05 to 0.5	> 5
COc1ccc(CC(=O)N[C@@H](C[C@@H]2COc3c(C)cccc32)B(O)O)cc1 [Compound No. 89, [(1R)-1-[[2-(4-methoxyphenyl)acetyl]amino]-2-[(3S)-7-methyl-2,3-dihydrobenzofuran-3-yl]ethyl]boronic acid]	+++++ (Selectivity ≥ 100)	< 0.05	> 5
N#Cc1ccccc1CC(=O)N[C@@H](Cc1coc2ccccc12)B(O)O [Compound No. 90, [(1R)-2-(benzofuran-3-yl)-1-[[2-(2-cyanophenyl)acetyl]amino]ethyl]-boronic acid]	+++++ (Selectivity ≥ 100)	< 0.05	0.5 to 5
CC(C)(O)c1ccc(CC(=O)N[C@@H](Cc2coc3ccccc23)B(O)O)cc1 [Compound No. 91, [(1R)-2-(benzofuran-3-yl)-1-[[2-[4-(1-hydroxy-1-methyl-ethyl)phenyl]acetyl]amino]ethyl]boronic acid]	+++++ (Selectivity ≥ 100)	< 0.05	0.05 to 0.5
